Assay results reported in ChEMBL document CHEMBL1140596, “Pharmacophore identification of KSP inhibitors” (Bioorg Med Chem Lett, 2007).

molecular target: T1, Kinesin-like protein KIF11 (Homo sapiens, UniProt P52732); assay: Inhibition of KSP
T1 sequence (P52732 whole entry): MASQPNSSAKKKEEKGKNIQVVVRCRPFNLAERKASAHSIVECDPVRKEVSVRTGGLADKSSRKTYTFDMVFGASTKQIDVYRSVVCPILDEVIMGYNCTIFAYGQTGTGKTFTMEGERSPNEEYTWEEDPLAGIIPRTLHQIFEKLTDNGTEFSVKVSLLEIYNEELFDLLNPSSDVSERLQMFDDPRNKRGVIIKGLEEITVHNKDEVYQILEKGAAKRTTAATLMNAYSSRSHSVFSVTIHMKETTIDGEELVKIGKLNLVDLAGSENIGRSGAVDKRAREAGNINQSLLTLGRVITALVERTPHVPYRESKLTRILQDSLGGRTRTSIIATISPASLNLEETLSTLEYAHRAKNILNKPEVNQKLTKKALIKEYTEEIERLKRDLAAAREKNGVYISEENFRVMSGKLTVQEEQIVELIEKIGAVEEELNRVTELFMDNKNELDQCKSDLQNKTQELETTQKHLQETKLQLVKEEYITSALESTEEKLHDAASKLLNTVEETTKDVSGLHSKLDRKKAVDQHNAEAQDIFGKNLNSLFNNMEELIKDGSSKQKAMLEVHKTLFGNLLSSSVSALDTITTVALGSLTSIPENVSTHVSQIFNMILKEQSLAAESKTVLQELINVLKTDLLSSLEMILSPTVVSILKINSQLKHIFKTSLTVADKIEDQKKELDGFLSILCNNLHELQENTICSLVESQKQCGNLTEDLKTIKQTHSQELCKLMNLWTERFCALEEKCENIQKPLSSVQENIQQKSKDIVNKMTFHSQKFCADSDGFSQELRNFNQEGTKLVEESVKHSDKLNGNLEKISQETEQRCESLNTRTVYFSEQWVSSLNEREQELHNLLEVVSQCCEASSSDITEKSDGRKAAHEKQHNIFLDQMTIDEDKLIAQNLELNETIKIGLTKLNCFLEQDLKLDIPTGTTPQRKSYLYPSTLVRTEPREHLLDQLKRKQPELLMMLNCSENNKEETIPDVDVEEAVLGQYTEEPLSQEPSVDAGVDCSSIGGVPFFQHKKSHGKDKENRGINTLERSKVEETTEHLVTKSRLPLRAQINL

`Oc1cccc(C(c2cc(Cl)c(O)c(Cl)c2)C(c2cc(Cl)c(O)c(Cl)c2)c2cc(Cl)c(O)c(Cl)c2)c1Cl` (centres undefined) and `Cc1cc2c(C(C)C)c(O)c(O)c(C=O)c2c(O)c1-c1c(C)cc2c(C(C)C)c(O)c(O)c(C=O)c2c1O` [GOSSYPOL] are within 1.5-fold of each other in IC50: 27 µM for the first, 25 µM for the second.

Going from `CC(C)(O)C1C[C@@H](O)[C@]2(C)[C@H](CC[C@@]3(C)[C@H]2CC[C@H]2Cc4c([nH]c5ccccc45)[C@@]23C)O1` (some centres undefined) to `CCCCN1C(=O)[C@@H]2Cc3c([nH]c4ccccc34)[C@@H](c3cccc(O)c3)N2C1=O`, the IC50 falls from 15 µM to 0.8 µM (19-fold).

`CCNCCN1CCN(CCCN2c3ccccc3Sc3ccc(C(F)(F)F)cc32)CC1` and `OC1CC2CCC(C1)N2CCCN1c2ccccc2Sc2ccc(Cl)cc21` (centres undefined) are within 1.5-fold of each other in IC50: 6.6 µM for the first, 5.6 µM for the second.

Compared with `NCCCCCN1C(=O)[C@@H]2Cc3c([nH]c4ccccc34)[C@@H](c3cccc(O)c3)N2C1=O`, `Cc1ccc(C(=O)N(CCCN)Cc2nc3cc(Cl)ccc3c(=O)n2Cc2ccccc2)cc1` is 3.1-fold higher in IC50: 0.09 µM for the first, 0.28 µM for the second. The first is the more potent here.

Compared with `CC[C@H](c1nc2cc(Cl)ccc2c(=O)n1Cc1ccccc1)N(CCCN(C)C)C(=O)c1ccc(Br)cc1`, `CC(=O)N1N=C(c2cc(F)ccc2F)C[C@H]1c1ccccc1` is 2.2-fold higher in IC50: 0.012 µM for the first, 0.026 µM for the second.

Going from `Oc1cccc2ccc(SSc3ccc4cccc(O)c4n3)nc12` to `Cc1ccc2c(c1C)CNCC2c1ccccc1` (centres undefined), the IC50 falls from 145 µM to 8.23 µM (18-fold). The second is the more potent here.

Compared with `CN1Cc2c(ccc3c2CCO3)[C@@H](c2ccccc2)C1`, `O=C(O)c1cc2c(cc1S(=O)(=O)O)C1C(C3C2C2(Cl)C(Cl)=C(Cl)C3(Cl)C2(Cl)Cl)C2(Cl)C(Cl)=C(Cl)C1(Cl)C2(Cl)Cl` (centres undefined) is 2.3-fold higher in IC50: 9.7 µM for the first, 22 µM for the second. The first is the more potent here.
